Assay [1] has as its system DLD-1 cells. Kind of assay: Degradation of long-lived proteins (proteolysis) in DLD-1 cells. It counts as cell-based, human. The note with it: for effect on ouabain-induced increase in protein degradation: 20 mM NH4Cl and 100 μM leupeptine or 10 mM 3-methyladenine during the chase. The source says:
The Na^+/K^+-ATPase is the common target of ouabain, digoxin, and digitoxin (Buckalew, 2005). Na^+/K^+-ATPase inhibition induces a plethora of effects including (a) disruption of the Na^+/K^+ gradient and consequent increase in intracellular [Ca^2+] (Grapengiesser et al., 1993), (b) interference with amino acid uptake (Johnson et al., 1986), and (c) the production of reactive oxygen species resulting in oxidative damage to proteins and organelles (Xie et al., 1999). Each of these individual events is either sufficient or necessary to promote autophagy. The latter maintains cell viability by furnishing essential biochemical building blocks via degradation of existing proteins and organelles in lysosomes (Levine and Klionsky, 2004). However, the effect of ouabain, or its cardiotonic congeners, on autophagy has not been examined. The later was explored by measuring rates of degradation of long-lived proteins, the preferential substrate for lysosomal degradation, in DLD-1 cells. […] The latter implies that macroautophagy, the degradation of sequestered material in a vesicular-based fashion, along with other types of autophagy (i.e. chaperone-mediated autophagy and microautophagy) contribute to ouabain-induced proteolysis.
Intracellular Protein Turnover. Rates of protein synthesis were measured in confluent cells as the incorporation of [3H]leucine [10 μCi/ml (1 Ci=37 GBq)] into acid-insoluble material in the presence of an excess (2.8 mM) of unlabeled leucine in the medium (to minimize differences due to alteration of amino acid transport and/or intracellular amino acid pool sizes). 28 To measure degradation of long-lived proteins, confluent cells were labeled with [3H]leucine (2 μCi/ml) for 48 h at 37° C. and then extensively washed and maintained in complete or amino acid depleted medium containing an excess of unlabeled leucine. Aliquots of the medium taken at different times were precipitated with trichloroacetic acid, and proteolysis was calculated as the amount of acid precipitable radioactivity converted into acid soluble at each time (Auteri et al., 1983). Where indicated, 20 mM NH4Cl and 100 μM leupeptine or 10 mM 3-methyladenine were added during the chase to block lysosomal proteolysis or macroautophagy, respectively.

The subject of assay [2] is HEK293 cells. Kind of assay: Rate of proteolysis in HEK293 cells after hSMG1 RNAi knockdown. Format: cell-based, human. The note with it: RNAi knockdown of hSMG1, lysosomal inhibitor added. The text has this:
Autophagy is the quintessential cellular response to limited nutrient supplies and/or the presence of damaged cytoplasmic components (Levine and Yuan, 2005). The corresponding ouabain-induced overexpression of hSMG1 may be a biochemical mechanism by which metabolic homeostasis is re-established, either by inhibiting or promoting autophagy. The possible influence of hSMG1 on autophagy was examined via a series of RNAi knockdown experiments. […] Consequently, all knockdown experiments were performed using the 293 cell line. Following RNAi knockdown, cells were either exposed to or deprived of amino acids and the effect on the rate of proteolysis noted. […] Protein degradation is enhanced in RNAi knockdown cells versus their unaltered counterparts (FIG. 3a). […]
Intracellular Protein Turnover. Rates of protein synthesis were measured in confluent cells as the incorporation of [3H]leucine [10 μCi/ml (1 Ci=37 GBq)] into acid-insoluble material in the presence of an excess (2.8 mM) of unlabeled leucine in the medium (to minimize differences due to alteration of amino acid transport and/or intracellular amino acid pool sizes). […] Aliquots of the medium taken at different times were precipitated with trichloroacetic acid, and proteolysis was calculated as the amount of acid precipitable radioactivity converted into acid soluble at each time (Auteri et al., 1983). […]

The test system of assay [3] is hSMG1 protein. Kind of assay: hSMG1 protein quantitation by Western blot in DLD-1 cells. The note with it: 10 μM ouabain for 24 hr. It counts as cell-based, human. As for the experimental part: hSMG1 Protein Quantitation. DLD-1 cells were exposed to 10 μM ouabain for 24 hr and subsequently lysed. Total protein concentration, following centrifugation, was determined using the BCA Protein Assay Kit (Pierce). Following electrophoresis, the membrane was divided and the individual halves separately exposed to the SMG1 antibody BL1657 (Bethyl Laboratories) and the actin antibody A5441 (Sigma) and then subsequently incubated with the appropriate horseradish peroxidase conjugated secondary antibodies. The membranes were treated with the Pierce Supersignal West Pico chemiluminescent reagent and quantified.
Background: In western blotting, separated proteins are transferred to a membrane and probed.

Assay [4] has as its system hSMG1 mRNA. Briefly: Drug library screen, hSMG1 mRNA quantitation by branched DNA assay in HeLa cells. It counts as cell-based, human. As for the experimental part: HeLa cells were separately exposed to each drug from the drug library in a multiwell plate format. After 24 h, hSMG mRNA was captured and quantified using a branched DNA assay (Collins et al., 1997). Actin mRNA levels were simultaneously measured from the same cell lysate in order to compensate for differences in viable cell number as a consequence of drug treatment. […] Both agents bind to and inhibit the Na^+/K^+-ATPase (Therien and Blostein, 2000).
(§1) Drug Library Screen and hSMG1 message quantitation. The QuantiGene® Explore kit (Panomics, Inc.) was used to furnish a direct quantitation of mRNA in a 96 well format. The “housekeeper gene” […] was selected as an intracellular control. Specific oligonucleotide probes for hSMG1, including capture extenders (CE), label extenders (LE) and blocking probes (BL) were designed with the Panomics ProbeDesigner™ software and synthesized. Prior to drug exposure, HeLa cells were incubated for 24 hr in 150 μL Dulbecco's modified Eagle Medium (DMEM) with 10% fetal bovine serum (FBS) and DLD-1 cells were incubated for 24 hr in 150 μL MEM with 1 mM MEM nonessential amino acids, 1 mM sodium pyrurate, 0.15% sodium bicarbonate, and 10% FBS. Cells were then exposed to various concentrations of the drugs for 24 hr and then lysed via incubation in 75 μL lysis buffer (QuantiGene® Explore kit) at 53° C. for 1 hr. Capture of hSMG1 and actin mRNA was conducted according to the manufacturers instructions and quantification performed using a microplate luminometer.

Assay [5] relates to hSMG1 transcription sites. Briefly: Fluorescence in situ hybridization (FISH) of active hSMG1 transcription sites in DLD-1 cells. Format: cell-based, human. The note with it: ouabain 10 μM for 1 hr, untreated 0.19. The text has this:
The branched chain DNA assay affords an averaged expression response from a cell population. The magnitude of this response is a function of actin mRNA levels, a baseline that furnishes relative, but not absolute, hSMG1 mRNA quantity. Since actin mRNA levels may be susceptible to influence by these drugs as well, fluorescence in situ hybridization was employed to directly visualize hSMG1 mRNA transcription sites in the DLD-1 cell line. […] Furthermore, these enhanced levels of mRNA synthesis rate and quantity directly translate into higher proteins levels, as exemplified by the ouabain-induced 2.7-fold increase in hSMG1 protein in DLD-1 cells (FIG. 2).
Fluorescence in situ hybridization (FISH). Previously described oligomer probes, each 50 bases in length from four regions of the hSMG1 gene, were designed with OLIGO software from Molecular Biology Insights, Inc., and synthesized on an Applied Biosystems automated DNA/RNA synthesizer (Capodieci et al., 2005). The activated fluorophore cy3 (Amersham) was used to label the probes. DLD-1 cells were seeded onto gelatinized coverslips, incubated as described above for 24 hr, and then treated with ouabain (10 μm) for 1 hr. […] The FISH specimens were imaged and analyzed as previously described (Capodieci et al., 2005).

In assay [6] the test system is ATR. Briefly: ATR mRNA quantity in DLD-1 cells in response to ouabain. It counts as cell-based, human. The source says: (§2) hSMG1 is a member of the PIKK family, which also includes ATM, ATR, mTOR, and DNA-PK (Therien and Blostein, 2000). These large, structurally homologous, proteins have been implicated as participants in the cellular response to various forms of stress.

The subject of assay [7] is DNAPK. Kind of assay: DNAPK mRNA quantity in DLD-1 cells in response to ouabain. Format: cell-based, human.
Source text: as §2

For assay [8], the system named is hSMG1 mRNA. Kind of assay: hSMG1 over-expression response to ouabain in other cell lines. Format: cell-based.
The subject of assay [9] is hSMG1 mRNA. Briefly: hSMG1 mRNA quantitation (branched DNA assay) in DLD-1 cells exposed to ouabain. Format: cell-based, human.
Procedure: The QuantiGene® Explore kit (Panomics, Inc.) was used to furnish a direct quantitation of mRNA in a 96 well format. The “housekeeper gene” 13-actin was selected as an intracellular control. Specific oligonucleotide probes for hSMG1, including capture extenders (CE), label extenders (LE) and blocking probes (BL) were designed with the Panomics ProbeDesigner™ software and synthesized. Prior to drug exposure, HeLa cells were incubated for 24 hr in 150 μL Dulbecco's modified Eagle Medium (DMEM) with 10% fetal bovine serum (FBS) and DLD-1 cells were incubated for 24 hr in 150 μL MEM with 1 mM MEM nonessential amino acids, 1 mM sodium pyrurate, 0.15% sodium bicarbonate, and 10% FBS. Cells were then exposed to various concentrations of the drugs for 24 hr and then lysed via incubation in 75 μL lysis buffer (QuantiGene® Explore kit) at 53° C. for 1 hr. Capture of hSMG1 and actin mRNA was conducted according to the manufacturers instructions and quantification performed using a microplate luminometer.
Assay [10] relates to ATM. Briefly: ATM mRNA quantity in DLD-1 cells in response to ouabain. It counts as cell-based, human.
Source text: as §2

For assay [11], the system named is mTOR. Kind of assay: mTOR mRNA quantity in DLD-1 cells in response to ouabain. Format: cell-based, human.
Source text: as §2

In assay [12] the test system is hSMG1 mRNA. Briefly: Counter-screen: block of ouabain-induced hSMG1 overexpression in DLD-1 cells. It counts as cell-based, human. The conditions noted are these: DLD-1 cells, mean ± S.D. of three wells. As for the experimental part: as §1
(In general: A counterscreen serves to expose hits that act by an unwanted route or on another target.)

These results are taken from patent publication US20100062437A1, “PARALLEL PROFILLING OF SIGNALING PATHWAYS” (priority 2007, published 2010).

On to `Cn1cnc(N)c2ncnc1-2` [3-methyladenine], for which the “lysosomal degradation sensitive to 3-methyladenine” value in assay [1] (ouabain treated, 10 mM 3-methyladenine) is reported as 30.5±3.4%. Further, the “effect on ouabain-induced increase in protein degradation” value (“effect on ouabain-induced increase” for short) in assay [1] (ouabain treated) is “partially offsets the effect of ouabain”.
Regarding `Cl.N` [ammonium chloride], the “effect on protein degradation caused by hSMG1 knockdown” value in assay [2] is reported as “only partly mitigates the effect of hSMG1 knockdown on protein degradation”. Also, the “effect on ouabain-induced increase” value in assay [1] (ouabain treated) is listed as “completely blocked”.
Turning to `C[C@@H]1O[C@@H](O[C@H]2C[C@@H](O)[C@]3(CO)[C@H]4[C@H](O)C[C@]5(C)[C@@H](C6=CC(=O)OC6)CC[C@]5(O)[C@@H]4CC[C@]3(O)C2)[C@H](O)[C@H](O)[C@H]1O` [Ouabain, ouabain], the “increase in hSMG1 protein” value in assay [3] is 2.7 fold. The “enhancement of hSMG1 expression levels” value in assay [4] worked out at 2 fold. Also, in assay [5], the “fraction of cells displaying active hSMG1 transcription sites” value stood at 0.63±0.1. Also, the “change in ATR mRNA quantity” value in [6] turned out to be 0.7±0.1 fold. For the same molecule, the “change in DNAPK mRNA quantity” value in assay [7] amounted to 0.8±0.1 fold. Moreover, the hSMG1 over-expression response in [8] (786-0 renal carcinoma, ouabain 10 μM) came out at 6.1±0.4 fold; in assay [8] (GM02037 wild type fibroblast, ouabain 10 μM), 3.4±0.1 fold; in assay [8] (HEK 293, ouabain 10 μM), 3.3±0.2 fold; in assay [8] (PC3 prostate carcinoma, ouabain 10 μM) it was 2.7±0.2 fold; in [8] (U87 glioblastoma, ouabain 10 μM), 1.4±0.1 fold; in assay [8] (primary astrocyte, ouabain 10 μM), 5.4±0.1 fold. The hSMG1 over-expression response in assay [9] (DLD-1 adenocarcinoma, ouabain 10 μM) is on record as 4.3±0.1 fold. The “enhancement in hSMG1 mRNA quantity” value in assay [9] (DLD-1 cells in response to ouabain) came out at 4.3±0.1. Also, the “hSMG1 Expression relative to untreated cells” value in [9] (DLD-1 cells, ouabain 10 μM alone, mean ± S.D. of three wells) is 4.3 ± 0.1. Besides, the “change in ATM mRNA quantity” value in assay [10] was determined as 1.1±0.1 fold. Besides, the “effect on proteolysis (degradation of long-lived proteins)” value in [1] (ouabain 10 μM, compared with amino acid starvation) was “dramatically enhances proteolysis”. Besides, the “change in mTOR mRNA quantity” value in assay [11] worked out at 1.3±0.1 fold.
`O=C1c2c(O)ccc(O)c2C(=O)c2c(NCCNCCO)ccc(NCCNCCO)c21` [Mitoxantrone]: the “hSMG1 Expression in the presence of ouabain and drug, relative to untreated cells” value in assay [12] (ouabain 10 μM + drug 14 μM) stood at 0.47 ± 0.01.
On to `CC(C)c1cccc(=O)c(O)c1` [Hinokitiol], for which, in assay [12] (ouabain 10 μM + drug 250 μM), the “hSMG1 Expression in the presence of ouabain and drug, relative to untreated cells” value was 1.3 ± 0.1.
Turning to `CC(=O)N[C@@H](CC(C)C)C(=O)N[C@@H](CC(C)C)C(=O)N[C@H](C=O)CCCNC(=N)N` [leupeptin], in [1] (ouabain treated), the “effect on ouabain-induced increase” value was “completely blocked”.
